Test results as given in the NIST ThermoML archive (doi:10.1021/je100190e).

Assay: mn = molality of the nth substance listed, in mol/kg
Conditions: 101 kPa, Liquid

N=C(N)NCCC[C@H](N)C(=O)O [L-arginine] + O
mass density [kg/m3]
Conditions	303.15 K	308.15 K	313.15 K	318.15 K	323.15 K
m1 = 0.0302	997.1	995.5	993.7	991.7	989.5
m1 = 0.0607	998.6	997	995.2	993.2	991
m1 = 0.0914	1000.1	998.5	996.7	994.7	992.5
m1 = 0.122	1001.5	999.9	998.1	996.1	993.9
m1 = 0.1533	1003	1001.4	999.6	997.6	995.4

N[C@@H](Cc1c[nH]cn1)C(=O)O [L-histidine] + O
mass density [kg/m3]
Conditions	303.15 K	308.15 K	313.15 K	318.15 K	323.15 K
m1 = 0.0303	997.3	995.7	993.9	991.9	989.7
m1 = 0.0606	998.9	997.3	995.5	993.5	991.3
m1 = 0.0913	1000.6	999	997.2	995.2	993
m1 = 0.1221	1002.2	1000.6	998.8	996.8	994.6
m1 = 0.1526	1003.8	1002.2	1000.4	998.4	996.2

Cl.NCCCC[C@H](N)C(=O)O [L-lysine monohydrochloride] + O
mass density [kg/m3]
Conditions	303.15 K	308.15 K	313.15 K	318.15 K	323.15 K
m1 = 0.0302	997.3	995.7	993.9	991.9	989.7
m1 = 0.0606	999	997.4	995.6	993.6	991.4
m1 = 0.0913	1000.7	999.1	997.3	995.3	993.1
m1 = 0.1224	1002.4	1000.8	999	997	994.8
m1 = 0.1536	1004.1	1002.5	1000.7	998.7	996.4

CC(=O)[O-].CC(=O)[O-].[Ca+2] [calcium acetate] + O
m1 = 1
Conditions	mass density [kg/m3]
303.15 K	1075.1
308.15 K	1073.2
313.15 K	1071.6
318.15 K	1069.3
323.15 K	1067.1

CC(=O)[O-].[K+] [potassium ethanoate] + O
m1 = 1
Conditions	mass density [kg/m3]
303.15 K	1039.7
308.15 K	1038.1
313.15 K	1036.1
318.15 K	1033.5
323.15 K	1032

CC(=O)[O-].[Na+] [sodium ethanoate] + O
m1 = 1
Conditions	mass density [kg/m3]
303.15 K	1032.9
308.15 K	1031.8
313.15 K	1029.3
318.15 K	1027.5
323.15 K	1025.4

O [water] + Cl.NCCCC[C@H](N)C(=O)O
Conditions	mass density [kg/m3]
323.15 K, m2 = 0	988

O [water] + N=C(N)NCCC[C@H](N)C(=O)O
Conditions	mass density [kg/m3]
323.15 K, m2 = 0	988

O [water] + N[C@@H](Cc1c[nH]cn1)C(=O)O
Conditions	mass density [kg/m3]
323.15 K, m2 = 0	988
